Among the data in patent publication US9249140B2, “Bicyclic heteroaromatic compounds” (MERCK PATENT GMBH, priority 2011, dated 2016) are IC50 values, retold here.

The target of assay [1] is T1, FAK (Homo sapiens, UniProt Q05397).
T1 construct: 2 nM FAK, 400 nM biotinylated substrate
Description: FAK kinase assay (autophosphorylation), 384-well flashplate. It counts as biochemical. As to conditions: enzymatic; 1 μM ATP; read-out: IC50 (enzymatic), FAK inhibition. Here is the method: The focal adhesion kinase (FAK) assay is carried out either as a 384-well flashplate assay (for example for Topcount measurements) or as a 384-well image flashplate assay (for LEADseeker measurements). […] The reaction is stopped using 25 μl of 200 mM EDTA. After 30 min at 30° C., the liquid is removed, and each well is washed three times with 100 μl of 0.9% sodium chloride solution. Non-specific reaction is determined in the presence of 1 μM EMD 1076893/0(PF-562271). The radioactivity is measured using Topcount (in the case of the use of flashplates) or using LEADseeker (in the case of the use of image flashplates).

Assay [2] has as its target T1, FAK. As to the kind of experiment: Cellular testing of FAK kinase inhibitors: autophosphorylation of FAK at tyrosine 397, Luminex-based assay in HT29 cells. It counts as cell-based. As to conditions: P-Y397-FAK in HT29 cells, 30 min, serum-free, read-out: IC50 (cellular), FAK inhibition.
Description: For analysis of the cellular activity of FAK, the extent of autophosphorylation of FAK at tyrosine 397 is determined with the aid of a Luminex-based assay in the 96-well format. HT29 cells are sown out with 30,000 cells per well in 100 μl of medium (90% of DMEM/10% of FCS) and incubated on the following day for 30 min with a serial dilution of the test substance (7 concentrations) under serum-free conditions. The cells are subsequently lysed using 90 μl of lysis buffer (20 mM tris/HCl pH 8.0, 150 mM NaCl, 1% of NP40, 10% of glycerol, 1% of phosphatase inhibitor II, 20 mM β-glycerol phosphate, 0.1% of protease inhibitor cocktail III, 0.01% of benzonase) per well, and the lysates are separated off from insoluble cell constituents by means of centrifugation through a 96-well filter plate (0.65 μm). The lysates are incubated at 4° C. overnight with shaking with Luminex beads to which an anti-total FAK antibody is coupled. The detection is carried out on the following day by addition of a P-Y397-FAK antibody and a species-specific PE-labelled secondary antibody. P-Y397-FAK is detected by measurement in the Luminex100 instrument by determination of 100 events per cavity in a measurement time of 60 sec. […] The values of the batches treated with test substance are calculated therefrom as percent of control, and IC50 values are determined by means of Assay Explorer.
A further assay deals with T2, IKKε (Homo sapiens, UniProt Q14164).
T2 construct: 1 nM IKKε, 800 nM biotinylated IκBα(19-42) peptide
T2 sequence (Q14164 1-716): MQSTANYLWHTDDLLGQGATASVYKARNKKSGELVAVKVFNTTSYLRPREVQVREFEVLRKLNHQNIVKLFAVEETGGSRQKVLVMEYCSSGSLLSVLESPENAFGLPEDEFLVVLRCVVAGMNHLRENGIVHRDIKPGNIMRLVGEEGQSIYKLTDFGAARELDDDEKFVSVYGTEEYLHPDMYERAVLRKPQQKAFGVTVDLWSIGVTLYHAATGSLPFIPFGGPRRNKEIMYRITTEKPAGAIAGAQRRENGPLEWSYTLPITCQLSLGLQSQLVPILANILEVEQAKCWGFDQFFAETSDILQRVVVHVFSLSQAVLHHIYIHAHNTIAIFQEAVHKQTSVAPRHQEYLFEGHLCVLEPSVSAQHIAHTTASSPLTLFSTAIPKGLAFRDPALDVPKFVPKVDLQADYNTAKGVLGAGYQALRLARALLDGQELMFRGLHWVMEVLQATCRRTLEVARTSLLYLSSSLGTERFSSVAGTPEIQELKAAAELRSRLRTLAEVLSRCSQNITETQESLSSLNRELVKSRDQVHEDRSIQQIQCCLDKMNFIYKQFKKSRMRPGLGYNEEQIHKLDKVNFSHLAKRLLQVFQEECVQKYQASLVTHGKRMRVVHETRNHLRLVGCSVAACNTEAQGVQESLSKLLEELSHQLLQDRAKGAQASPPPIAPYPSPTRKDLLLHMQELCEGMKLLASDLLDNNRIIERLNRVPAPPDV
As to the kind of experiment: IKKε kinase test (IKKepsilon), 384-well flashplate. In kind it is biochemical. As to conditions: enzymatic; 10 μM ATP; read-out: IKKe IC50 (enzymatic). On the procedure:
The kinase assay is performed as 384-well flashplate assay. 1 nM IKKε, 800 nM biotinylated IκBα(19-42) peptide (biotin-C6-C6-[…] (SEQ ID NO: 2)) and 10 μM ATP (with 0.3 μCi of 33P-ATP/well) are incubated in a total volume of 50 μl (10 mM MOPS, 10 mM magnesium acetate, 0.1 mM EGTA, 1 mM dithiothreitol, 0.02% of Brij, 0.1% of BSA, 0.1% of BioStab, pH 7.5) with or without test substance at 30° C. for 120 min. The reaction is stopped using 25 μl of 200 mM EDTA solution, filtered off with suction after 30 min at room temperature, and the wells are 25 washed 3 times with 100 μl of 0.9% NaCl solution. The non-specific proportion of the kinase reaction (blank) is determined using 3 μM EMD 1126352 (BX-795). Radioactivity is measured in the Topcount. IC50 values are calculated using RS1.

A further assay addresses T3, PDK1 (Homo sapiens, UniProt O15530).
T3 construct: the PDK1 sample His6-PDK1(Δ1-50)(3.4 nM)
T3 sequence (O15530 51-556): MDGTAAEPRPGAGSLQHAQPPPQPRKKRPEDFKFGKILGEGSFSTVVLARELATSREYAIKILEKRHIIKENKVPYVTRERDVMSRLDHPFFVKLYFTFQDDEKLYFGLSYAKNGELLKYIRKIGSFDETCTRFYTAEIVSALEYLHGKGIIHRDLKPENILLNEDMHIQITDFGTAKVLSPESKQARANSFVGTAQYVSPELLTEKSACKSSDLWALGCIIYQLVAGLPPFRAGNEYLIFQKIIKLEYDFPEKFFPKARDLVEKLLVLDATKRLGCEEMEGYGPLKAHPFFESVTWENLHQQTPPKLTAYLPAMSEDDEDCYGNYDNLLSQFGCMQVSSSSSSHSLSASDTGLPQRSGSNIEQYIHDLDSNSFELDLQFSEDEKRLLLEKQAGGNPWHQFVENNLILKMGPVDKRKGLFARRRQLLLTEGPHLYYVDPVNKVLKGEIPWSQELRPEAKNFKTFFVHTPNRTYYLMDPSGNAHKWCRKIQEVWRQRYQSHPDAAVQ
Description: Test for the inhibition of PDK1, 384-well flashplate. In kind it is biochemical. As to conditions: enzymatic; 4 μM ATP. On the procedure: The experimental batches are carried out in a flashplate system with 384 wells/microtitration plate.
In each case, the PDK1 sample His6-PDK1(Δ1-50)(3.4 nM) (“His6” disclosed as SEQ ID NO: 4), the PDK1 substrate biotin-bA-bA-[…] (SEQ ID NO: 1) (400 nM), 4 μM ATP (with 0.2 μCi of 33P-ATP/well) and the test substance in 50 μl of conventional experimental solution per well are incubated at 30° C. for 60 min. The test substances are employed in corresponding concentrations (if desired in a dilution series). The control is carried out without test substance. The reaction is stopped using standard methods and washed. The activity of the kinase is measured via the incorporated radioactivity in top count. In order to determine the non-specific kinase reaction (blank value), the experimental batches are carried out in the presence of 100 nM staurosporine.
The radioactivity (decompositions per minute) of the blank value (no use of test substance in the presence of staurosporine) is subtracted from all other radioactivity values. The controls (kinase activity without test substance) are set equal to 100 percent and all other radioactivity values (after subtracting the blank value) are expressed set in relation thereto (for example in % of the control).

The target in assay [3] is T4, TANK binding kinase (TBK1) (Homo sapiens, UniProt Q9UHD2).
T4 sequence (Q9UHD2 1-729): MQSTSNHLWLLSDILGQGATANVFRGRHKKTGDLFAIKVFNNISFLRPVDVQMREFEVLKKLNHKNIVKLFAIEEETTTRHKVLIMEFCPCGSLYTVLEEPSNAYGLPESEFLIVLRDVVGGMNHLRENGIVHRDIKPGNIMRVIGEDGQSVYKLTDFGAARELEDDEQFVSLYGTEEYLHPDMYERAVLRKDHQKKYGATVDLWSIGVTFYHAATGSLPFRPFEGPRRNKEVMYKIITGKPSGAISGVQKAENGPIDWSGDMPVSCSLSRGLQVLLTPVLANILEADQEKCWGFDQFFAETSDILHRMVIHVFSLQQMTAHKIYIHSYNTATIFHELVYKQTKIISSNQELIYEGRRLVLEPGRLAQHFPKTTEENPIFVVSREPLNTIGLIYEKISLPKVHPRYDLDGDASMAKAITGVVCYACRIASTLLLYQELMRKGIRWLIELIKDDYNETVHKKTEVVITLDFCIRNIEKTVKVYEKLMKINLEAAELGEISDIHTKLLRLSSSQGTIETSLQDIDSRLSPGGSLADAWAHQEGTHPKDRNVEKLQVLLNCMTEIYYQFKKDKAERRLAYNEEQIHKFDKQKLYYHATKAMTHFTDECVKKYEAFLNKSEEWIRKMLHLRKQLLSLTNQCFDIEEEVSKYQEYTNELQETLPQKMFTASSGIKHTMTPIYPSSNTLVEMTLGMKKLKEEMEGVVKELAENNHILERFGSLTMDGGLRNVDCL
As to the kind of experiment: TBK1 kinase test, 384-well flashplate. It counts as biochemical. To be noted: enzymatic; 10 μM ATP. Here is the method:
The kinase assay is performed as 384-well flashplate assay. 0.6 nM TANK binding kinase (TBK1), 800 nM biotinylated MELK-derived peptide (biotin-Ah-Ah-[…] (SEQ ID NO: 3)) and 10 μM ATP (with 0.25 μCi of 33P-ATP/well) are incubated in a total volume of 50 μl (10 mM MOPS, 10 mM magnesium acetate, 0.1 mM EGTA, 1 mM DTT, 0.02% of Brij35, 0.1% of BSA, pH 7.5) with or without test substance at 30° C. for 120 min. The reaction is stopped using 25 μl of 200 mM EDTA solution, filtered off with suction after 30 min at room temperature, and the wells are washed 3 times with 100 μl of 0.9% NaCl solution. The non-specific proportion of the kinase reaction (blank) is determined using 100 nM staurosporine. Radioactivity is measured in the Topcount. IC50 values are calculated using RS1.

Molecules are shown by their SMILES. pIC50: −log10 of the molar value.

T1 sequence (Q05397 whole entry): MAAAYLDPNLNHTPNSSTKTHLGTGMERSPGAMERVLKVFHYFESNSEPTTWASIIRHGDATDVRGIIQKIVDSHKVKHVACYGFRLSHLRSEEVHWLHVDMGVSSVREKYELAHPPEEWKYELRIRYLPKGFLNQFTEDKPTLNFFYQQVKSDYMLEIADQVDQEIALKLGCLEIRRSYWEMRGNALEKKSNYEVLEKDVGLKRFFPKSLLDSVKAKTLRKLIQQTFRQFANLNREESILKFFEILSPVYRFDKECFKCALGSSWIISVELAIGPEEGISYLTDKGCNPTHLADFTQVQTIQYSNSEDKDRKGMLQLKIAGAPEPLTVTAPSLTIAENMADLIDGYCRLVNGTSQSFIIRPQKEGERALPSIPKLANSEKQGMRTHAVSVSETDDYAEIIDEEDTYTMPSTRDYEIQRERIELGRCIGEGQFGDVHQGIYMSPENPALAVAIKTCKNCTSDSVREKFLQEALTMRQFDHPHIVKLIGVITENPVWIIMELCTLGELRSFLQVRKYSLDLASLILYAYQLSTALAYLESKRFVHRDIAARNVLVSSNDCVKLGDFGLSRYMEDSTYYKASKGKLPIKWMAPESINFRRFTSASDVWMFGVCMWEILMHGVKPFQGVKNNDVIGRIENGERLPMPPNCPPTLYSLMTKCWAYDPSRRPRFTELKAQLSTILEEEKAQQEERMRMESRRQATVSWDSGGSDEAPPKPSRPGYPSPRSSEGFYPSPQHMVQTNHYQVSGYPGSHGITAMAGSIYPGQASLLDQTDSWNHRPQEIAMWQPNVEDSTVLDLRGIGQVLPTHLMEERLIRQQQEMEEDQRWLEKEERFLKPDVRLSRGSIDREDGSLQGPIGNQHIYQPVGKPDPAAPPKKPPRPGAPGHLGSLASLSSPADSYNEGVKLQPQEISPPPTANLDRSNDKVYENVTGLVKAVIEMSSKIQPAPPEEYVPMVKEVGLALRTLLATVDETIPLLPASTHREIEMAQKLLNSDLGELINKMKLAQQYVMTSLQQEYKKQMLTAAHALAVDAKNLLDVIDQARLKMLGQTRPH

Broadly, the pIC50 is the negative decadic logarithm of the IC50, by convention in mol/L. As to `CN(c1ncccc1CNc1c(C#N)cnc2[nH]cc(Cl)c12)S(C)(=O)=O` [A10, N-{3-[(3-Chloro-5-cyano-1H-pyrrolo[2,3-b]-pyridin-4-ylamino)methyl]pyridin-2-yl}-N-methylmethanesulfonamide], the negative-log IC50 (pIC50) was 5.52 to 6.52 on FAK [1] and 4.30 to 5.52 on FAK [2].

As for `O=c1ccc(-c2c(C(F)(F)F)cnc3[nH]c(-c4ccc(N5CCOCC5)cc4)cc23)c[nH]1` [A97, 5-[2-(4-Morpholin-4-ylphenyl)-5-trifluoromethyl-1H-pyrrolo[2,3-b]pyridin-4-yl]-1H-pyridin-2-one], the negative-log IC50 (pIC50) (on IKKε; at PDK1; in assay [3]) was 5.52 to 6.52 throughout.
